19 molecules from patent US20190388425A1, “SUBSTITUTED IMIDAZOPYRIDINPYRIMIDINES” (Bayer Pharma Aktiengesellschaft, priority 2017, published 2019) can be followed below.

This test addresses T1, human full-length MKNK1 (Homo sapiens, UniProt Q9BUB5, T385D).
T1 construct: GST (N); purchased Carna Biosciences 02-145; host or cells: insect cells (baculovirus expression system)
In words: MKNK1 kinase high ATP assay (TR-FRET). It is filed as biochemical. The following applies: TR-FRET, 2 mM ATP (high ATP), 15 min preincubation with enzyme, 30 min reaction at 22° C.; read-out: MKNK1 IC50. How it is done:
MKNK1 Kinase High ATP Assay
MKNK1-inhibitory activity at high ATP of compounds of the present invention after their preincubation with MKNK1 was quantified employing the TR-FRET-based MKNK1 high ATP assay as described in the following paragraphs.
As substrate for the kinase reaction the biotinylated peptide biotin-Ahx-[…] (C-terminus in amide form) was used, which can be purchased e.g. from the company Biosyntan (Berlin-Buch, Germany).
For the assay 50 nL of a 100 fold concentrated solution of the test compound in DMSO was pipetted into a black low volume 384 well microtiter plate (Greiner Bio-One, Frickenhausen, Germany), 2 μL of a solution of MKNK1 in aqueous assay buffer [50 mM HEPES pH 7.5, 5 mM MgCl2, 1.0 mM dithiothreitol, 0.005% (v/v) Nonidet-P40 (Sigma)] was added and the mixture was incubated for 15 min at 22° C. to allow pre-binding of the test compounds to the enzyme before the start of the kinase reaction. Then the kinase reaction was started by the addition of 3 μL of a solution of adenosine-tri-phosphate (ATP, 3.3 mM=>final conc. in the 5 μL assay volume is 2 mM) and substrate (0.1 μM=>final conc. in the 5 μL assay volume is 0.06 μM) in assay buffer and the resulting mixture was incubated for a reaction time of 30 min at 22° C. The concentration of MKNK1 was adjusted depending of the activity of the enzyme lot and was chosen appropriate to have the assay in the linear range, typical concentrations were in the range of 0.003 μg/mL. The reaction was stopped by the addition of 5 μL of a solution of TR-FRET detection reagents (5 nM streptavidine-XL665 [Cisbio Bioassays, Codolet, France] and 1 nM anti-ribosomal protein S6 (pSer236)-antibody from Invitrogen [#44921G] and 1 nM LANCE EU-W1024 labeled ProteinG [Perkin-Elmer, product no. AD0071]) in an aqueous EDTA-solution (100 mM EDTA, 0.1% (w/v) bovine serum albumin in 50 mM HEPES pH 7.5).
The resulting mixture was incubated for 1 h at 22° C. to allow the formation of complex between the phosphorylated biotinylated peptide and the detection reagents. Subsequently the amount of phosphorylated substrate was evaluated by measurement of the resonance energy transfer from the Eu-chelate to the streptavidine-XL. Therefore, the fluorescence emissions at 620 nm and 665 nm after excitation at 350 nm were measured in a TR-FRET reader, e.g. a Rubystar (BMG Labtechnologies, Offenburg, Germany) or a Viewlux (Perkin-Elmer). The ratio of the emissions at 665 nm and at 622 nm was taken as the measure for the amount of phosphorylated substrate.
(In general: In TR-FRET formats the signal depends on donor and acceptor labels being close together.)

Structures are written as SMILES.

T1 sequence (Q9BUB5 1-424 isoform Q9BUB5-2 T344D): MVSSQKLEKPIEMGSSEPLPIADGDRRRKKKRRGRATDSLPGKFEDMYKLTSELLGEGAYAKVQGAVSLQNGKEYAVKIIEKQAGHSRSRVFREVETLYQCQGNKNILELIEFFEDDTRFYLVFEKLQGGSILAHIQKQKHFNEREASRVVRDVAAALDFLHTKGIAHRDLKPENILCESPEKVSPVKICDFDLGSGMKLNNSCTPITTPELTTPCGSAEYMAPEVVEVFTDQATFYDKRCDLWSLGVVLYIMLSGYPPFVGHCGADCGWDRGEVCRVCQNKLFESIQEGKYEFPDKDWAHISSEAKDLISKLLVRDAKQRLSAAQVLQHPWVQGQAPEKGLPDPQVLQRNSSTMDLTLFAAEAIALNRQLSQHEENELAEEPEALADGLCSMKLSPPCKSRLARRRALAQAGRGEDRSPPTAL

Take `C[C@@H]1CN(C(=O)[C@H]2CCc3c(sc4ncnc(Nc5cc(Cl)c6n(c5=O)C(C)(C)NC6=O)c34)C2)CCN1C` [Example 115, 8-Chloro-6-({(7S)-7-[(3R)-3,4-dimethylpiperazine-1-carbonyl]-5,6,7,8-tetrahydro[1]benzothieno[2,3-d]pyrimidin-4-yl}amino)-3,3-dimethyl-2,3-dihydroimidazo[1,5-a]pyridine-1,5-dione]: the IC50 was 0.2 nM. As to `Cc1cc(Nc2ncnc3sc4c(c23)CC[C@H](C(N)=O)C4)c(=O)n2c1C(=O)NC21CCCCC1` [Example 17, (7S)-4-[(8′-Methyl-1′,5′-dioxo-1′,5′-dihydro-2′H-spiro[cyclohexane-1,3′-imidazo[1,5-a]pyridin]-6′-yl)amino]-5,6,7,8-tetrahydro[1]benzothieno[2,3-d]pyrimidine-7-carboxamide], the IC50 came out at 0.5 nM.

Regarding `Cc1cc(Nc2ncnc3sc4c(c23)CC[C@H](C(=O)N2CC(C#N)C2)C4)c(=O)n2c1C(=O)NC2(C)C` [Example 29, 1-({(7S)-4-[(3,3,8-Trimethyl-1,5-dioxo-1,2,3,5-tetrahydroimidazo[1,5-a]pyridin-6-yl)amino]-5,6,7,8-tetrahydro[1]benzothieno[2,3-d]pyrimidin-7-yl}carbonyl)azetidine-3-carbonitrile], the IC50 amounted to 1 nM. For the molecule `CN(C)[C@H]1CCN(C(=O)[C@H]2CCc3c(sc4ncnc(Nc5cc(Cl)c6n(c5=O)C5(CCCC5)NC6=O)c34)C2)C1` [Example 89, 8′-Chloro-6′-({(7S)-7-[(3S)-3-(dimethylamino)pyrrolidine-1-carbonyl]-5,6,7,8-tetrahydro[1]benzothieno[2,3-d]pyrimidin-4-yl}amino)-2′H-spiro[cyclopentane-1,3′-imidazo[1,5-a]pyridine]-1′,5′-dione], the IC50 was below 0.1 nM. Consider `Cc1cc(Nc2ncnc3sc4c(c23)CC[C@H](C(=O)N2CCN(C)[C@H](C)C2)C4)c(=O)n2c1C(=O)NC21CCC1` [Example 25, 6′-{[(7S)-7-{[(3R)-3,4-Dimethylpiperazin-1-yl]carbonyl}-5,6,7,8-tetrahydro[1]benzothieno[2,3-d]pyrimidin-4-yl]amino}-8′-methyl-2′H-spiro[cyclobutane-1,3′-imidazo[1,5-a]pyridine]-1′,5′-dione], for which the IC50 amounted to 0.4 nM. As to `Cc1cc(Nc2ncnc3sc4c(c23)CC[C@H](C(=O)N(C)C)C4)c(=O)n2c1C(=O)NC21CS(=O)(=O)C1` [Example 66, (7S)—N,N-Dimethyl-4-[(8-methyl-1′,1′-dioxido-1,5-dioxo-1,5-dihydro-2H-spiro[imidazo[1,5-a]pyridine-3,3′-thietan]-6-yl)amino]-5,6,7,8-tetrahydro[1]benzothieno[2,3-d]pyrimidine-7-carboxamide], the IC50 was determined as 3.1 nM. The same measure for `Cc1cc(Nc2ncnc3sc4c(c23)CC[C@H](C(=O)N(C)C)C4)c(=O)n2c1C(=O)NC21CCC(F)(F)CC1` [Example 52, (7S)-4-[(4,4-Difluoro-8′-methyl-1′,5′-dioxo-1′,5′-dihydro-2′H-spiro[cyclohexane-1,3′-imidazo[1,5-a]pyridin]-6′-yl)amino]-N,N-dimethyl-5,6,7,8-tetrahydro[1]benzothieno[2,3-d]pyrimidine-7-carboxamide]: 0.6 nM; for `Cc1cc(Nc2ncnc3sc4c(c23)CC[C@H](C(=O)N2CC[C@H](N(C)C)C2)C4)c(=O)n2c1C(=O)NC21CCC1` [Example 24, 6′-{[(7S)-7-{[(3S)-3-(Dimethylamino)pyrrolidin-1-yl]carbonyl}-5,6,7,8-tetrahydro[1]benzothieno[2,3-d]pyrimidin-4-yl]amino}-8′-methyl-2′H-spiro[cyclobutane-1,3′-imidazo[1,5-a]pyridine]-1′,5′-dione]: 0.2 nM; for `CC1(C)NC(=O)c2c(Cl)cc(Nc3ncnc4sc5c(c34)CC[C@H](C(N)=O)C5)c(=O)n21` [Example 110, (7S)-4-[(8-Chloro-3,3-dimethyl-1,5-dioxo-1,2,3,5-tetrahydroimidazo[1,5-a]pyridin-6-yl)amino]-5,6,7,8-tetrahydro[1]benzothieno[2,3-d]pyrimidine-7-carboxamide]: 1.2 nM.

`CN(C)[C@H]1CCN(C(=O)[C@H]2CCc3c(sc4ncnc(Nc5cc(Cl)c6n(c5=O)C(C)(C)NC6=O)c34)C2)C1` [Example 114, 8-Chloro-6-({(7S)-7-[(3S)-3-(dimethylamino)pyrrolidine-1-carbonyl]-5,6,7,8-tetrahydro[1]benzothieno[2,3-d]pyrimidin-4-yl}amino)-3,3-dimethyl-2,3-dihydroimidazo[1,5-a]pyridine-1,5-dione]: the IC50 was below 0.1 nM.

`O=C1NC2(CCCCC2)n2c1c(Cl)cc(Nc1ncnc3sc4c(c13)CC[C@H](C(=O)N1CCC1)C4)c2=O` [Example 76, 6′-{[(7S)-7-(Azetidin-1-ylcarbonyl)-5,6,7,8-tetrahydro[1]benzothieno[2,3-d]pyrimidin-4-yl]amino}-8′-chloro-2′H-spiro[cyclohexane-1,3′-imidazo[1,5-a]pyridine]-1′,5′-dione]: the half-inhibitory concentration (IC50) turned out to be 0.9 nM. `Cc1cc(Nc2ncnc3sc4c(c23)CC[C@H](C(=O)N2CC(C#N)C2)C4)c(=O)n2c1C(=O)NC21CS(=O)(=O)C1` [Example 68, 1-({(7S)-4-[(8-Methyl-1′,1′-dioxido-1,5-dioxo-1,5-dihydro-2H-spiro[imidazo[1,5-a]pyridine-3,3′-thietan]-6-yl)amino]-5,6,7,8-tetrahydro[1]benzothieno[2,3-d]pyrimidin-7-yl}carbonyl)azetidine-3-carbonitrile]: the IC50 was 2.5 nM. For `O=C1NC2(CSC2)n2c1c(Cl)cc(Nc1ncnc3sc4c(c13)CC[C@H](C(=O)N1CCC1)C4)c2=O` [Example 103, 6-{[(7S)-7-(Azetidine-1-carbonyl)-5,6,7,8-tetrahydro[1]benzothieno[2,3-d]pyrimidin-4-yl]amino}-8-chloro-2H-spiro[imidazo[1,5-a]pyridine-3,3′-thietane]-1,5-dione], the IC50 stood at 0.2 nM. For `Cc1cc(Nc2ncnc3sc4c(c23)CC[C@H](C(=O)O)C4)c(=O)n2c1C(=O)NC21CCC1` [Example 16, (7S)-4-[(8′-Methyl-1′,5′-dioxo-1′,5′-dihydro-2′H-spiro[cyclobutane-1,3′-imidazo[1,5-a]pyridin]-6′-yl)amino]-5,6,7,8-tetrahydro[1]benzothieno[2,3-d]pyrimidine-7-carboxylic acid], the IC50 was 3.9 nM. Regarding `Cc1cc(Nc2ncnc3sc4c(c23)CC[C@H](C(=O)N2C[C@H]3C[C@@H]2CO3)C4)c(=O)n2c1C(=O)NC21CCCC1` [Example 36, 8′-Methyl-6′-({(7S)-7-[(1R,4R)-2-oxa-5-azabicyclo[2.2.1]hept-5-ylcarbonyl]-5,6,7,8-tetrahydro[1]benzothieno[2,3-d]pyrimidin-4-yl}amino)-2′H-spiro[cyclopentane-1,3′-imidazo[1,5-a]pyridine]-1′,5′-dione], the IC50 was determined as 1.3 nM. Consider `Cc1cc(Nc2ncnc3sc4c(c23)CC[C@H](C(=O)N2CC[C@H](N(C)C)C2)C4)c(=O)n2c1C(=O)NC21CCCCC1` [Example 9, 6′-{[(7S)-7-{[(3S)-3-(Dimethylamino)pyrrolidin-1-yl]carbonyl}-5,6,7,8-tetrahydro[1]benzothieno[2,3-d]pyrimidin-4-yl]amino}-8′-methyl-2′H-spiro[cyclohexane-1,3′-imidazo[1,5-a]pyridine]-1′,5′-dione], for which the IC50 is 0.1 nM. The figure for `CC1(C)NC(=O)c2c(Cl)cc(Nc3ncnc4sc5c(c34)CC[C@H](C(=O)N3CCC3)C5)c(=O)n21` [Example 112, 6-{[(7S)-7-(Azetidine-1-carbonyl)-5,6,7,8-tetrahydro[1]benzothieno[2,3-d]pyrimidin-4-yl]amino}-8-chloro-3,3-dimethyl-2,3-dihydroimidazo[1,5-a]pyridine-1,5-dione] is 0.2 nM; for `Cc1cc(Nc2ncnc3sc4c(c23)CC[C@H](C(=O)N2CCN(C)[C@H](C)C2)C4)c(=O)n2c1C(=O)NC21CCC(F)(F)CC1` [Example 57, 6′-{[(7S)-7-{[(3R)-3,4-Dimethylpiperazin-1-yl]carbonyl}-5,6,7,8-tetrahydro[1]benzothieno[2,3-d]pyrimidin-4-yl]amino}-4,4-difluoro-8′-methyl-2′H-spiro[cyclohexane-1,3′-imidazo[1,5-a]pyridine]-1′,5′-dione] it is 1.4 nM. `Cc1cc(Nc2ncnc3sc4c(c23)CC[C@H](C(=O)N2CC(N(C)C)C2)C4)c(=O)n2c1C(=O)N[C@]21CC[C@@](O)(C(F)(F)F)CC1` [Example 62]: the IC50 turned out to be 6.5 nM.

What is called IC50 is the midpoint of a concentration-inhibition curve.
